Earlier results as cited in US20080031898A1, “Compositions and methods to increase the effect of a neurotoxin treatment” (priority 2004, published 2008).

Tested on: BRAF(V600E) mutant xenografts
Conditions: Solit et al, Nature 2006

Structure (SMILES): O=C(NOC[C@H](O)CO)c1ccc(F)c(F)c1Nc1ccc(I)cc1F [PD0325901]
- suppression of xenograft growth: completely suppresses the growth
